Source: US20220281821A1, “INDAZOLE COMPOUNDS AND THEIR PHARMACEUTICAL COMPOSITIONS” (Jinan University, priority 2019, published 2022)

Experiments:
TRKA = molecular target: T1, TRKA (Homo sapiens, UniProt P04629); experiment: Z′-LYTE kinase activity assay, TRKA; type: biochemical; conditions: ATP 400 uM
T1 construct: purchased life technologies PV3144
Description: (§1) Kinase activity assay: Z′-LYTE™ technology (detection by fluorescence, enzyme-conjugated format, based on the difference in sensitivity of phosphorylated and non-phosphorylated peptides to proteolytic cleavage) was applied, and using the principle of fluorescence resonance energy transfer (FRET), a Z′-LYTE™ FRET peptide substrate (Z′-LYTE™ Tyrosine 1 Peptide Substrate, Invitrogen, PV3190), and a secondary reaction were used to detect the inhibitory activity of the compounds on TRKs (TRK1, TRK2, TRK3) (life technologies, PV3144, PV3616, PV3617).
(§2) Enzymatic reaction: In a 384-well plate, 5 μL of an enzyme-substrate system (50 mM HEPES pH 7.5, 0.01% BRIJ-35, 10 mM MgCl2, 1 mM EGTA, 2 μM Tyr 01 Peptide Substrate) was added and 5 nL of compound (concentration gradient) was transferred thereto by using the echo520 ultramicro liquid pipetting system. […] After shaking and mixing, centrifuging was performed. A reaction was carried out at 30° C. in the dark for 1.5 hours.
(§3) The data were analyzed as follows:
(§4) Phosphorylation ratio=1−{(emission ratio×F100%−C100%)/[C0%−C100%+emission ratio×(F100%−F0%)]}×100;
(§5) Inhibition rate=100×(1−compound phosphorylation ratio/negative control phosphorylation ratio).
(§6) IC50 values were calculated by using GraphPad Prism 5.0 software.

TRKB = molecular target: T2, TRKB (Homo sapiens, UniProt Q16620); experiment: Z′-LYTE kinase activity assay, TRKB; type: biochemical; conditions: ATP 25 uM
T2 construct: purchased life technologies PV3616
Description: as §1, §2, §3, §4, §5, §6

TRKC = molecular target: T3, TRKC (Homo sapiens, UniProt Q16288); experiment: Z′-LYTE kinase activity assay, TRKC; type: biochemical; conditions: ATP 50 uM
T3 construct: purchased life technologies PV3617
Description: as §1, §2, §3, §6

BaF3-CD74-NTRK1 = molecular target: T4, BaF3-CD74-NTRK1 (Homo sapiens, UniProt P04629); experiment: Cell proliferation inhibition (CCK-8), BaF3-CD74-NTRK1 stable strain; type: cell-based, mouse; conditions: BaF3-CD74-NTRK1, 72 hours
T4 construct: fused on or other part: P04233 (HLA class II histocompatibility antigen gamma chain)
Outline: (§7)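 Ba/F3 cells stably electroporated with ETV6-NTRK3, CD74-NTRK1 or ETV6-NTRK2, selected with G418 and grown without IL3, then cloned by limiting dilution.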

BaF3-ETV6-NTRK2 = molecular target: T5, BaF3-ETV6-NTRK2 (Homo sapiens, UniProt Q16620); experiment: Cell proliferation inhibition (CCK-8), BaF3-ETV6-NTRK2 stable strain; type: cell-based, mouse; conditions: BaF3-ETV6-NTRK2, 72 hours
T5 construct: fused on or other part: P41212 (Transcription factor ETV6)
Outline: as §7

BaF3-ETV6-NTRK3 = molecular target: T6, BaF3-ETV6-NTRK3 (Homo sapiens, UniProt Q16288); experiment: Cell proliferation inhibition (CCK-8), BaF3-ETV6-NTRK3 stable strain; type: cell-based, mouse; conditions: BaF3-ETV6-NTRK3, 72 hours
T6 construct: fused on or other part: P41212 (Transcription factor ETV6)
Outline: as §7

T4 sequence (P04629 510-796 limits assumed): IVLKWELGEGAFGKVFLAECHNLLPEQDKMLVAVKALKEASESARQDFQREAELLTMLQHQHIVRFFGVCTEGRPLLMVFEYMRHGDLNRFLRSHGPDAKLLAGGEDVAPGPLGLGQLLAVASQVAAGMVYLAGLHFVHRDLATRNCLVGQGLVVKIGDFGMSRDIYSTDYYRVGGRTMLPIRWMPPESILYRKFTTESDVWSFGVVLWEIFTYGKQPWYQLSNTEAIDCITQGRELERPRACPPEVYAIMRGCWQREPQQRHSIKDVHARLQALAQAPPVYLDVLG
T3 sequence (Q16288 32-839): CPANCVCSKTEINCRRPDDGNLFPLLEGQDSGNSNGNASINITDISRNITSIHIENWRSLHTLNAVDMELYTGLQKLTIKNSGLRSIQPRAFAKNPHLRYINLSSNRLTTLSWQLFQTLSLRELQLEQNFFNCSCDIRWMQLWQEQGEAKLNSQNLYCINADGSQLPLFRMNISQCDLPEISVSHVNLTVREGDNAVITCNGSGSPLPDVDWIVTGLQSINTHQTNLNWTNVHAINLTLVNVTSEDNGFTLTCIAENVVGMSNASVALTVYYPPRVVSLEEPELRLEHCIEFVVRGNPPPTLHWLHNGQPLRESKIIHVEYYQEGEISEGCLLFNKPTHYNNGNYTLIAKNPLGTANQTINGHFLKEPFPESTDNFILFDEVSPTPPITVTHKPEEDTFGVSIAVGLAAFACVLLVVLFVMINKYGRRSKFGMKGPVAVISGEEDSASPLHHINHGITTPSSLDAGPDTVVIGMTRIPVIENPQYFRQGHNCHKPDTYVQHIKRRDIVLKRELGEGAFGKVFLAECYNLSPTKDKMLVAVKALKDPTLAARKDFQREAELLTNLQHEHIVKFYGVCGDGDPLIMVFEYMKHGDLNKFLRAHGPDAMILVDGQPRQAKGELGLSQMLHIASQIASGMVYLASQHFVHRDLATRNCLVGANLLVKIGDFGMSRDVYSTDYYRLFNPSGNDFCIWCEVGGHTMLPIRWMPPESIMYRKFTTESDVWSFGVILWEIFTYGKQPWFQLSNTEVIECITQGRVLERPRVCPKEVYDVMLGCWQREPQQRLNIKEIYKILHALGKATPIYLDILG
T5 sequence (Q16620 538-822 limits assumed): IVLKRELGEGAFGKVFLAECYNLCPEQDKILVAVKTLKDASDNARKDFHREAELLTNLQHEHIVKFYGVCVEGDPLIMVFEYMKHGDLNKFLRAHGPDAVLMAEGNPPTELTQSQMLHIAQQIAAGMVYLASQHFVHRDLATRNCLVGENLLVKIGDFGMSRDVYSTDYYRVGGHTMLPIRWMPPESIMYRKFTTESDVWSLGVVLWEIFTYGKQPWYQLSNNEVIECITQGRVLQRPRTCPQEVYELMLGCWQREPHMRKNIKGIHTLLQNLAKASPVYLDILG
T1 sequence (P04629 440-796 limits assumed): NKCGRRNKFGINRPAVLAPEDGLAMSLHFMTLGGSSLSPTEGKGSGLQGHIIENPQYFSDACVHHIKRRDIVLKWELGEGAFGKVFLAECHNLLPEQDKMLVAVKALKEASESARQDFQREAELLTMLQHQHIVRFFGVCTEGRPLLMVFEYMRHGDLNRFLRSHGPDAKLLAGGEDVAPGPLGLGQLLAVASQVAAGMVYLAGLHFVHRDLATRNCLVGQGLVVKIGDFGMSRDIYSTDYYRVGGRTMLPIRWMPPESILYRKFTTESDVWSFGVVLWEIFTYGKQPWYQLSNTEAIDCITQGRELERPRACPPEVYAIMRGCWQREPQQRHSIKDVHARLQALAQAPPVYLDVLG
T6 sequence (Q16288 whole entry, the tested form may be a part): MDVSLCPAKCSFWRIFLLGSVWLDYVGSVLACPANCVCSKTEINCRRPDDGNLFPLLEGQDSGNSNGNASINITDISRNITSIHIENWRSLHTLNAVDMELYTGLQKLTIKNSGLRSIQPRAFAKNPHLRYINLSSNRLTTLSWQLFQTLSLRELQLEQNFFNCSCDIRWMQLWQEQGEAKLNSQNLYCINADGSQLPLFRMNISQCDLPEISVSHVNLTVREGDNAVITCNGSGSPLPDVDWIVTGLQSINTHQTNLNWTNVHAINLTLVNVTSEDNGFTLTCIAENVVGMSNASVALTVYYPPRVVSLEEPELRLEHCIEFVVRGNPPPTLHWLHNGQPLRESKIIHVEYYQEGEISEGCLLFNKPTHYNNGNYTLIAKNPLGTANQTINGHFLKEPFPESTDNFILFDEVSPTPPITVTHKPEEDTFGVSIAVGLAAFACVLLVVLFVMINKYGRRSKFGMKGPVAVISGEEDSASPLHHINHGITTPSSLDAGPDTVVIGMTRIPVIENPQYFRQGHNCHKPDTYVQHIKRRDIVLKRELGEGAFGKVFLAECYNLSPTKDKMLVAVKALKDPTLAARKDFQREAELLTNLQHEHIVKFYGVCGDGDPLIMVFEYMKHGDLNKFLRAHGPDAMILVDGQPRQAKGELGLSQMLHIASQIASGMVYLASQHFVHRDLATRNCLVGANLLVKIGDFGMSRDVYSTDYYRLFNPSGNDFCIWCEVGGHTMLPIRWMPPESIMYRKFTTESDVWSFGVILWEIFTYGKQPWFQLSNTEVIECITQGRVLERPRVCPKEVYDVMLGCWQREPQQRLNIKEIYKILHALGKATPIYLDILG
T2 sequence (Q16620 32-822): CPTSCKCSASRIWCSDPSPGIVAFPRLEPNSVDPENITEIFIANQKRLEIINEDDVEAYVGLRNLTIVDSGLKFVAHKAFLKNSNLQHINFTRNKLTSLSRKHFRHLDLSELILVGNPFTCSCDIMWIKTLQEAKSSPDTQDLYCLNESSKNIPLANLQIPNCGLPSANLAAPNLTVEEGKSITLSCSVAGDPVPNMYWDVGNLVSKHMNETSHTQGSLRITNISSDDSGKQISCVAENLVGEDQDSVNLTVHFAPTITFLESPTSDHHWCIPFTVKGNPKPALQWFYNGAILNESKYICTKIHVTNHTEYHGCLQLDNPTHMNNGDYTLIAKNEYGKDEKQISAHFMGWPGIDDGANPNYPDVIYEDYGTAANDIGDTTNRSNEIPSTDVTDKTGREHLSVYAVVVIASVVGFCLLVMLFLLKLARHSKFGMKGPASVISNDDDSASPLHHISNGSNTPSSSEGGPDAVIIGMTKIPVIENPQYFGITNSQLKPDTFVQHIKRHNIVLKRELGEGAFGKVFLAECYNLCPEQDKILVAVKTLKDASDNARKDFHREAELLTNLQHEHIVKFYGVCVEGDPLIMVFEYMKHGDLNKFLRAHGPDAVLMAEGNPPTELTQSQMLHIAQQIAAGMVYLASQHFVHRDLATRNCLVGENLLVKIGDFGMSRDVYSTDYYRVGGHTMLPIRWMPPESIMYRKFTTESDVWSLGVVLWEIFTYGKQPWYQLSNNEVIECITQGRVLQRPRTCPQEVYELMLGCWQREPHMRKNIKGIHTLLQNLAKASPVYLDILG

IC50 (TRKA)	IC50 (TRKB)	IC50 (TRKC)	IC50 (BaF3-CD74-NTRK1)	IC50 (BaF3-ETV6-NTRK2)	IC50 (BaF3-ETV6-NTRK3)	SMILES
213 nM	397 nM	91.1 nM	> 10000 nM	> 10000 nM	> 10000 nM	Cc1cccc(Cc2ccc3[nH]nc(C#Cc4ccccn4)c3c2)c1 [DYX-137Q, 5-(3-methylbenzyl)-3-(pyridin-2-ylethynyl)-1H-indazole]
33.8 nM	80.8 nM	21.9 nM	2420 nM	3720 nM	3180 nM	Cc1cccc(Cc2ccc3[nH]nc(/C=C/c4ccccn4)c3c2)c1 [DYX-137X, (E)-5-(3-methylbenzyl)-3-(2-(pyridin-2-yl)vinyl)-1H-indazole]
757 nM	356 nM	262 nM	6650 nM	4080 nM	> 10000 nM	FC(F)(F)c1cccc(Cc2ccc3[nH]nc(/C=C/c4ccccn4)c3c2)c1 [DYX-138X, (E)-3-(2-(pyridin-2-yl)vinyl)-5-(3-(trifluoromethyl)benzyl)-1H-indazole]
15 nM	25.7 nM	18.1 nM	2360 nM	1790 nM	1270 nM	CN(c1cc(F)cc(F)c1)c1ccc2[nH]nc(/C=C/c3ccccn3)c2c1 [DYX-139, (E)-N-(3,5-difluorophenyl)-N-methyl-3-(2-(pyridin-2-yl)vinyl)-1H-indazol-5-amine]
318 nM	> 1000 nM	155 nM	3080 nM	2460 nM	3100 nM	O=S(=O)(c1cc(F)cc(F)c1)c1cc2c(/C=C/c3ccccn3)n[nH]c2cn1 [DYX-149, (E)-5-((3,5-difluorophenyl)sulfonyl)-3-(2-(pyridin-2-yl)vinyl)-1H-pyrazolo[3,4-c]pyridine]
3.3 nM	9.4 nM	4.1 nM	65.2 nM	163 nM	120 nM	O=S(=O)(c1cc(F)cc(F)c1)c1ccc2[nH]nc(/C=C/c3ccccn3)c2n1 [DYX-150, (E)-5-((3,5-difluorophenyl)sulfonyl)-3-(2-(pyridin-2-yl)vinyl)-1H-pyrazolo[4,3-b]pyridine]
196 nM	741 nM	226 nM	1930 nM	2580 nM	2240 nM	O=C(Nc1ccc2[nH]nc(/C=C/c3ccccn3)c2c1)c1cc(F)cc(F)c1 [DYX-164, (E)-3,5-difluoro-N-(3-(2-(pyridin-2-yl)vinyl)-1H-indazol-5-yl)benzamide]
8.1 nM	18.4 nM	1.9 nM	99.4 nM	242 nM	167 nM	Fc1ccc(F)c([C@H]2CCCN2c2ccc3[nH]nc(/C=C/c4ccccn4)c3c2)c1 [DYX-170, (R,E)-5-(2-(2,5-difluorophenyl)pyrrolidin-1-yl)-3-(2-(pyridin-2-yl)vinyl)-1H-indazole]
577 nM	> 1000 nM	532 nM	8040 nM	2730 nM	2640 nM	O=C(Nc1cc(F)cc(F)c1)c1ccc2[nH]nc(/C=C/c3ccccn3)c2c1 [DYX-171, (E)-N-(3,5-difluorophenyl)-3-(2-(pyridin-2-yl)vinyl)-1H-indazole-5-carboxamide]
46.8 nM	242 nM	94.1 nM	1180 nM	1910 nM	623 nM	O=C(Nc1cc(F)cc(F)c1)Nc1ccc2[nH]nc(/C=C/c3ccccn3)c2c1 [DYX-174, (E)-1-(3,5-difluorophenyl)-3-(3-(2-(pyridin-2-yl)vinyl)-1H-indazol-5-yl)urea]
7.1 nM	21.4 nM	6.5 nM	627 nM	2520 nM	1040 nM	Fc1cc(F)cc(OCc2ccc3[nH]nc(/C=C/c4ccccn4)c3c2)c1 [DYX-176]
3.9 nM	9.9 nM	4.7 nM	498 nM	694 nM	415 nM	Fc1cc(F)cc(CCc2ccc3[nH]nc(/C=C/c4ccccn4)c3c2)c1 [DYX-180, (E)-5-(3,5-difluorophenethyl)-3-(2-(pyridin-2-yl)vinyl)-1H-indazole]
1.7 nM	10 nM	1.9 nM	32.6 nM	43.9 nM	23.7 nM	Fc1cc(F)cc(CNc2ccc3[nH]nc(/C=C/c4ccccn4)c3c2)c1 [DYX-185, (E)-N-(3,5-difluorobenzyl)-3-(2-(pyridin-2-yl)vinyl)-1H-indazol-5-amine]
18.7 nM	20.3 nM	6.2 nM	172 nM	625 nM	278 nM	CN(Cc1cc(F)cc(F)c1)c1ccc2[nH]nc(/C=C/c3ccccn3)c2c1 [DYX-187, (E)-N-(3,5-difluorobenzyl)-N-methyl-3-(2-(pyridin-2-yl)vinyl)-1H-indazol-5-amine]
9.1 nM	37.1 nM	16.6 nM	264 nM	667 nM	503 nM	Fc1cc(F)cc(NCc2ccc3[nH]nc(/C=C/c4ccccn4)c3c2)c1 [DYX-191, (E)-3,5-difluoro-N-((3-(2-(pyridin-2-yl)vinyl)-1H-indazol-5-yl)methyl)aniline]
45.4 nM	120 nM	33.2 nM	136 nM	316 nM	83 nM	CN(Cc1ccc2[nH]nc(/C=C/c3ccccn3)c2c1)c1cc(F)cc(F)c1 [DYX-193, (E)-3,5-difluoro-N-methyl-N-((3-(2-(pyridin-2-yl)vinyl)-1H-indazol-5-yl)methyl)aniline]
3.3 nM	22.4 nM	20.9 nM	147 nM	170 nM	110 nM	Fc1cc(F)cc(Cc2ccc3[nH]nc(/C=C/c4ccncc4)c3c2)c1 [DYX-215, (E)-5-(3,5-difluorobenzyl)-3-(2-(pyridin-4-yl)vinyl)-1H-indazole]
1.1 nM	6.5 nM	1.3 nM	12.6 nM	8.7 nM	7.2 nM	Fc1ccc(F)c(CNc2ccc3[nH]nc(/C=C/c4ccccn4)c3c2)c1 [DYX-216A, (E)-N-(2,5-difluorobenzyl)-3-(2-(pyridin-2-yl)vinyl)-1H-indazol-5-amine]
3 nM	4.8 nM	0.8 nM	10.1 nM	20 nM	7.1 nM	C[C@@H](Nc1ccc2[nH]nc(/C=C/C(=O)N3CC[C@H](O)C3)c2c1)c1cc(F)cc(F)c1 [DYX-303, (E)-3-(5-(((R)-1-(3,5-difluorophenyl)ethyl)amino)-1H-indazol-3-yl)-1-((S)-3-hydroxylpyrrolidin-1-yl)prop-2-en-1-one]
1.8 nM	9.5 nM	1.3 nM	28.2 nM	51.3 nM	22.9 nM	Fc1cccc(CNc2ccc3[nH]nc(/C=C/c4ccccn4)c3c2)c1 [DYX-305, (E)-N-(3-fluorobenzyl)-3-(2-(pyridin-2-yl)vinyl)-1H-indazol-5-amine]
